Source: patent US20250381179A1, “CHROMAN-BASED COMPOUNDS FOR TREATING CANCER” (priority 2024, published 2025)
Where two headings read alike, the source gives them in different places.

Experiments:
ERa [1] = target: T1, ERa (Homo sapiens, UniProt P03372); assay: ERa degradation in ERa-positive breast cancer cell lines; format: cell-based; conditions: multiple ERa-positive breast cancer cell lines, such as MCF7
T1 sequence (P03372 1-595): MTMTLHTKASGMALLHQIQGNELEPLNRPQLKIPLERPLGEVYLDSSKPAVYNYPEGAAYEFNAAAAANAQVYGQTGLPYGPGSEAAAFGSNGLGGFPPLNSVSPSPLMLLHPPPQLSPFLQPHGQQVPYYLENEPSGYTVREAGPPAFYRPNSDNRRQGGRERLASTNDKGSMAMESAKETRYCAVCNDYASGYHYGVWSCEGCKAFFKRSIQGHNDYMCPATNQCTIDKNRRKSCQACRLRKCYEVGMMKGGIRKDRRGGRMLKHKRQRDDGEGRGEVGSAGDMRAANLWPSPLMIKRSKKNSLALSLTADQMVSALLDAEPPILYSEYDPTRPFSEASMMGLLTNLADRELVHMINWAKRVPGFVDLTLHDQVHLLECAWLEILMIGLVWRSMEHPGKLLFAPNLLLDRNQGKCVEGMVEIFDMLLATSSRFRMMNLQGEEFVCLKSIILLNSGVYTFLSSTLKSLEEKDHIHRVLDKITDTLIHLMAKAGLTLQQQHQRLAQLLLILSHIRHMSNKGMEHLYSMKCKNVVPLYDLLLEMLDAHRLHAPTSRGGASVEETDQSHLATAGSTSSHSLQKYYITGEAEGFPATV

CYP3A = assay: in vitro; conditions: human
CYP2C19 = CYP2C19 (Homo sapiens, UniProt P33261)
Sequence of CYP2C19 (P33261 whole entry): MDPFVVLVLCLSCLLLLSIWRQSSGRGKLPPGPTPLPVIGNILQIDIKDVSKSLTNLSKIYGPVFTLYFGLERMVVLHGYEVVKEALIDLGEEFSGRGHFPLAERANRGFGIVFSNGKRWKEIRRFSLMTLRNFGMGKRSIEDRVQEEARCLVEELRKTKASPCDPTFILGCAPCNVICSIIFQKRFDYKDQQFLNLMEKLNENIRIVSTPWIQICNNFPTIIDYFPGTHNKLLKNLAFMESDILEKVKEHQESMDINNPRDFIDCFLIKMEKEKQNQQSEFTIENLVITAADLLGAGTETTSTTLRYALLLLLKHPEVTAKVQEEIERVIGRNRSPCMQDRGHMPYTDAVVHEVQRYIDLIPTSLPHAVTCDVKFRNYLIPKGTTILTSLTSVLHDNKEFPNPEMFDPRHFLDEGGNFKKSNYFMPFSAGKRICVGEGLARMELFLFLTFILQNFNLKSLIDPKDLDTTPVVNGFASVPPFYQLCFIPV

[2] = target: T2, human cytochrome P450 CYP2C8 (Homo sapiens, UniProt P10632); assay: In vitro metabolism by CYP2C8; format: in vitro ADME
T2 sequence (P10632 1-490): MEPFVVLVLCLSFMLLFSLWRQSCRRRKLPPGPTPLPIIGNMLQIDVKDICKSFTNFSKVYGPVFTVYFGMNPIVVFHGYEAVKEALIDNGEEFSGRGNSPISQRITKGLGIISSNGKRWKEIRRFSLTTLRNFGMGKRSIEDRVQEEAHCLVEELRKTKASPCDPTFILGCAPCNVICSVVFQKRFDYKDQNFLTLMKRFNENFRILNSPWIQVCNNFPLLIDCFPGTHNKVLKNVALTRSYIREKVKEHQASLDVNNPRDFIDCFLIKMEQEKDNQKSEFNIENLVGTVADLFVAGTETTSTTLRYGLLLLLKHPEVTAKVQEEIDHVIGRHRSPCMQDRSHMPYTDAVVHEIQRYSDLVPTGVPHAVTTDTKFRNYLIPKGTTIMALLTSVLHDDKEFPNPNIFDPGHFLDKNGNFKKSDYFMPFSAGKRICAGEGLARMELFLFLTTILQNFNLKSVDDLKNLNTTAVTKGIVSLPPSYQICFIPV

[3] = test system: tamoxifen-resistant MCF7 xenograft; assay: Tamoxifen-resistant MCF7 xenograft model; format: in vivo, mice; conditions: in combination with the CDK4/6 inhibitor palbociclib
MCF7 xenograft tumors = MCF7 xenograft tumors in mice, once daily oral administration; format: in vivo; conditions: once daily oral 30 mg/kg/day (lowest dose level evaluated)
CYP1A2 = CYP1A2 induction in hepatocytes (activity, mRNA); format: in vitro ADME; conditions: for CYP1A2 mRNA expression increase: 1 of 3 hepatocyte donors
[4] = Exposure after repeat oral administration in GLP toxicology study, rats; format: in vivo
From the text: There were no marked sex-based differences in exposure, but in the 28-day toxicity study of compound (1-g) in rats, exposures were 1.4 to 1.9-fold higher in female rats compared to males.

ERa [5] = target: T1, ERa; assay: Binding to human ERa; conditions: for IC50: read-out: half-maximal inhibitory concentration (IC50) (converted)
CYP2C8 = target: T3, CYP2C8 (Homo sapiens, UniProt P10632); assay: CYP2C8 direct inhibition; format: in vitro ADME; conditions: highest concentration evaluated (10 μM)
T3 sequence (P10632 1-490): T2 sequence (P10632 1-490)

O=C1CC[C@H](N2Cc3cc(N4CCN(CC5CCN(c6ccc([C@@H]7c8ccc(O)cc8OC[C@@H]7c7ccccc7)cc6F)CC5)CC4)ccc3C2=O)C(=O)N1 [compound (1-g), (S)-3-(5-(4-((1-(2-fluoro-4-((3S,4R)-7-hydroxy-3-phenylchroman-4-yl)phenyl)piperidin-4-yl)methyl)piperazin-1-yl)-1-oxoisoindolin-2-yl)piperidine-2,6-dione]
ERa degradation (ERa [1]): induces rapid ERa degradation
inhibition at 10 µM (CYP3A): 31.3%
CYP2C19 time-dependent inhibition (CYP2C19): without showing time-dependent inhibition
metabolism by CYP2C8 [2]: weakly metabolized
anti-tumor activity in combination [3]: enhanced anti-tumor activity was observed
effect on MCF7 xenograft tumors (MCF7 xenograft tumors): achieved tumor regression
CYP1A2 mRNA expression increase (CYP1A2; 0.5 μM (372 ng/mL)): 1.4 fold
CYP1A2 mRNA expression increase (CYP1A2; 2 μM): 3.1 fold
CYP1A2 enzyme activity induction (CYP1A2; hepatocytes): no induction of CYP1A2 enzyme activity was observed
accumulation with repeated dosing [4]: No significant accumulation
exposure (AUC0-24h) versus dose ([4]; repeat oral administration): increased in an approximately dose-dependent manner
IC50 (ERa [5]): 6.02 nM
Ki (ERa [5]; read-out: inhibitor constant (Ki)): 0.53 nM
IC50 (ERa [5]; same value in ng/mL): 5.91 nM
CYP2C8 direct inhibition (CYP2C8): did not directly inhibit
